Key:
athletes [1] = test: Endurance group: maximum repetitions in 6 basic exercises by athletes taking galanthamine; assay type: in vivo, human; settings: vs initial level
Excerpt: (§1) 30 healthy individuals, both male and female, ages 18-28, are separated into 2 groups, 15 persons each, to observe the changes in their strength and endurance after administration of galanthamine and regular physical training. All subjects are athletes who have exercised regularly in the gym for 1 to 3 years. During the 3 week test period, all subjects train about 4 times a week with a special exercise program for the first week as described below, supplemented with the subjects' own preferred training schedule. Strength and endurance are observed through 6 basic exercises involving the major muscle groups as follows:
10 participants in each group take galanthamine, the other 5 take a placebo. The dosage of galanthamine is 7.5 mg daily taken with a meal 1.5-2 hours before the workout on training days and 5 mg daily on non-training days divided into two equal portions taken in the morning and in the afternoon. 2. The Strength Group. • a. The initial level. Before administration of galanthamine the initial strength level of each subject is determined and is defined as the maximum weight a subject is able to lift in all 6 exercises. • b. The training schedule. […]

athletes [2] = test: Strength group: maximum weight lifted in 6 basic exercises by athletes taking galanthamine; assay type: in vivo, human
Excerpt: as §1
10 participants in each group take galanthamine, the other 5 take a placebo. The dosage of galanthamine is 7.5 mg daily taken with a meal 1.5-2 hours before the workout on training days and 5 mg daily on non-training days divided into two equal portions taken in the morning and in the afternoon. 2. The Strength Group. • a. The initial level. Before administration of galanthamine the initial strength level of each subject is determined and is defined as the maximum weight a subject is able to lift in all 6 exercises. • b. The training schedule. The subjects use a split training method, that is they alternate on one day training their chest, back and shoulder muscles (performing exercises #1, 2 and 3, respectively) and the next day train their biceps, triceps and legs (exercises #4, 5 and 6, respectively). The subjects do 5-6 sets in each exercise using a pyramidal principle for increasing their strength, i.e. they start every exercise doing 10-15 repetitions using a middle weight, then increase the weight gradually, being able to do fewer repetitions, until the maximum weight they are able to lift for one repetition with difficulty is reached. 2 sets are then performed using the same or 5-10% less weight. This maximum weight is considered the “record for the day”, and is compared to the initial level. • c. The results. An increase in strength is observed almost immediately after administration of galanthamine. […]

For `COc1ccc2c3c1O[C@H]1C[C@@H](O)C=C[C@@]31CCN(C)C2` [galanthamine], the average endurance increase (athletes [1]; after the first week, 7.5 mg daily on training days, 5 mg daily on non-training days) was 11%, the average endurance increase (athletes [1]; end of the trial, after 3 weeks of treatment) was 24% and the “average increase in strength” value (athletes [2]; after 1 week, 7.5 mg daily on training days, 5 mg daily on non-training days, vs initial level) was 4-7%. The “total increase in strength” value (athletes [2]; by the third week, 7.5 mg daily on training days, 5 mg daily on non-training days, vs initial level) was 10-13% and the “increase in strength reported by athletes” value (athletes [2]; continued galanthamine for up to 3 months, during the entire period) was “over 20%”.
